Test results as given in patent publication US7960377B2 (priority 2008, dated 2011).

Molecular target: human CB1 receptor (Homo sapiens, UniProt P21554)
Test: cell-based

Chain of human CB1 receptor (P21554 whole entry): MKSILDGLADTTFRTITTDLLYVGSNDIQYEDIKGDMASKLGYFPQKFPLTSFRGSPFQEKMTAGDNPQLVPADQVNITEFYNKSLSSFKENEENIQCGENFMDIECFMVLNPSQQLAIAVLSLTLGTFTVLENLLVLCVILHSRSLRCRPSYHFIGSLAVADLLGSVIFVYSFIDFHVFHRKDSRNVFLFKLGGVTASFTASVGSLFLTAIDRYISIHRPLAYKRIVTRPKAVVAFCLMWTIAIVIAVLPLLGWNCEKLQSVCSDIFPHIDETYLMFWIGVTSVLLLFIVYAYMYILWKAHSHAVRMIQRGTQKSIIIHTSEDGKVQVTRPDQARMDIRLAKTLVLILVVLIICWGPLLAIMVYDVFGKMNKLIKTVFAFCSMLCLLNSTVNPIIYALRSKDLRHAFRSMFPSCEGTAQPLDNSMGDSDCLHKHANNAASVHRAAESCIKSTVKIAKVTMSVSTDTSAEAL

O=C(c1cnc2c(c1)N(S(=O)(=O)c1ccc(C(F)(F)F)cc1)CCO2)N1CCCCC1CO (racemic) [Example 72, +/− (2-(hydroxymethyl)piperidin-1-yl)(1-(4-(trifluoro-methyl)phenylsulfonyl)-2,3-dihydro-1H-pyrido [2,3-b][1,4]oxazin-7-yl) methanone]
EC50: > 30 µM

COC(=O)CC1CCCCN1C(=O)c1cnc2c(c1)N(S(=O)(=O)c1ccc(C(F)(F)F)cc1)CCO2 (racemic) [Example 73, +/− methyl 2-(1-(1-(4-(trifluoromethyl)phenylsulf-onyl)-2,3-dihydro-1H-pyrido[2,3-b][1,4]oxazine-7-carbonyl)piperidin-2-yl)acetate]
EC50: > 30 µM

O=C(c1cnc2c(c1)N(S(=O)(=O)c1ccc(C(F)(F)F)cc1)CCO2)N1CCCCC1CN1CCCC1 (racemic) [Example 75, +/− (2-(pyrrolidin-1-ylmethyl)piperidin-1-yl)(1-(4-(trifluoromethyl)-phenylsulfonyl)-2,3-dihydro-1H-pyrido[2,3-b][1,4]oxazin-7-yl)-methanone]
EC50: > 30 µM

O=C(c1cnc2c(c1)N(S(=O)(=O)c1ccc(C(F)(F)F)cc1)CCO2)N1CCCCC1CN1CCOCC1 (racemic) [Example 76, +/− (2-(morpholino-methyl)piperidin-1-yl)(1-(4-(trifluoromethyl)-phenylsulfonyl)-2,3-dihydro-1H-pyrido[2,3-b][1,4]oxazin-7-yl)methanone]
EC50: > 30 µM

O=C(c1cnc2c(c1)N(S(=O)(=O)c1ccccc1)CCO2)N1CCCCC1 [Example 1, (1-(phenylsulfonyl)-2,3-dihydro-1H-pyrido[2,3-b][1,4]oxazin-7-yl)(piperidin-1-yl)methanone]
EC50: > 30 µM

O=C(NCC1CCOCC1)c1cnc2c(c1)N(S(=O)(=O)c1ccc(F)cc1)CCO2 [Example 9, 1-(4-fluorophenyl-sulfonyl)-N-((tetrahydro-2H-pyran-4-yl)methyl)-2,3-dihydro-1H-pyrido[2,3-b][1,4]oxazine-7-carboxamide]
EC50: > 30 µM

CCN(CC)C(=O)c1cnc2c(c1)N(S(=O)(=O)c1ccc(F)cc1)CCO2 [Example 13, N,N-diethyl-1-(4-fluorophenylsulfonyl)2,3-dihydro-1H-pyrido[2,3-b][1,4]oxazine-7-carboxamide]
EC50: > 30 µM

O=C(NCC1CCCO1)c1cnc2c(c1)N(S(=O)(=O)c1ccc(F)cc1)CCO2 (stereo not shown) [Example 14, 1-(4-fluorophenyl-sulfonyl)-N-((tetra-hydrofuran-2-yl)methyl)-2,3-dihydro-1H-pyrido [2,3-b][1,4]oxazine-7-carboxamide]
EC50: > 30 µM

CC(C)(C)NC(=O)c1cnc2c(c1)N(S(=O)(=O)c1cccnc1)CCO2 [Example 16, N-tert-butyl-1-(pyridin-3-ylsulfonyl)-2,3-dihydro-1H-pyrido[2,3-b][1,4]oxazine-7-carboxamide]
EC50: > 30 µM

O=C(NC1CCCC1)c1cnc2c(c1)N(S(=O)(=O)c1cccnc1)CCO2 [Example 17, N-cyclopentyl-1-(pyridin-3-ylsulfonyl)-2,3-dihydro-1H-pyrido[2,3-b][1,4]oxazine-7-carboxamide]
EC50: > 30 µM

CC(C)CS(=O)(=O)N1CCOc2ncc(C(=O)NC(C)(C)C)cc21 [Example 28, N-tert-butyl-1-(isobutylsulfonyl)-2,3-dihydro-1H-pyrido[2,3-b][1,4]oxazine-7-carboxamide]
EC50: > 30 µM

CC(C)CS(=O)(=O)N1CCOc2ncc(C(=O)NC3CCCC3)cc21 [Example 29, N-cyclopentyl-1-(isobutylsulfonyl)-2,3-dihydro-1H-pyrido[2,3-b][1,4]oxazine-7-carboxamide]
EC50: > 30 µM

CN(Cc1ccccc1)C(=O)c1cnc2c(c1)N(S(=O)(=O)c1ccc(F)cc1)CCO2 [Example 32, N-benzyl-1-(4-fluorophenylsulfonyl)-N-methyl-2,3-dihydro-1H-pyrido[2,3-b][1,4]oxazine-7-carboxamide]
EC50: > 30 µM

COCCN(C)C(=O)c1cnc2c(c1)N(S(=O)(=O)c1ccc(Cl)cc1)CCO2 [Example 34, 1-(4-chlorophenyl-sulfonyl)-N-(2-methoxy-ethyl)-N-methyl-2,3-dihydro-1H-pyrido[2,3-b][1,4]oxazine-7-carboxamide]
EC50: > 30 µM

COCCN(C)C(=O)c1cnc2c(c1)N(S(=O)(=O)c1ccc(C(F)(F)F)cc1)CCO2 [Example 35, N-(2-methoxyethyl)-N-methyl-1-(4-(trifluoro-methyl)phenylsulfonyl)-2,3-dihydro-1H-pyrido-[2,3-b][1,4]oxazine-7-carboxamide]
EC50: > 30 µM

CN(Cc1ccccc1)C(=O)c1cnc2c(c1)N(S(=O)(=O)c1ccc(C(F)(F)F)cc1)CCO2 [Example 36, N-benzyl-N-methyl-1-(4-(trifluoromethyl)phenylsulf-onyl)-2,3-dihydro-1H-pyrido[2,3-b][1,4]oxazine-7-carboxamide]
EC50: > 30 µM

CC(C)(CN1CCCC1)NC(=O)c1cnc2c(c1)N(S(=O)(=O)c1ccc(C(F)(F)F)cc1)CCO2 [Example 37, N-(2-methyl-1-(pyrrolidin-1-yl)propan-2-yl)-1-(4-(trifluoromethyl)phenylsulf-onyl)-2,3-dihydro-1H-pyrido[2,3-b][1,4]oxazine-7-carboxamide]
EC50: > 30 µM

CC(C)(C)N(CCC#N)C(=O)c1cnc2c(c1)N(S(=O)(=O)c1ccc(C(F)(F)F)cc1)CCO2 [Example 41, N-tert-butyl-N-(2-cyanoethyl)-1-(4-(trifluoromethyl)phenylsulf-onyl)-2,3-dihydro-1H-pyrido[2,3-b][1,4]oxazine-7-carboxamide]
EC50: > 30 µM

CC(C)(C)N(CCO)C(=O)c1cnc2c(c1)N(S(=O)(=O)c1ccc(C(F)(F)F)cc1)CCO2 [Example 44, N-tert-butyl-N-(2-hydroxyethyl)-1-(4-(trifluoromethyl)phenylsulf-onyl)-2,3-dihydro-1H-pyrido[2,3-b][1,4]oxazine-7-carboxamide]
EC50: > 30 µM

CC(C)(N)CNC(=O)c1cnc2c(c1)N(S(=O)(=O)c1ccc(C(F)(F)F)cc1)CCO2 [Example 47, N-(2-amino-2-methylpropyl)-1-(4-(trifluoromethyl)phenylsulf-onyl)-2,3-dihydro-1H-pyrido[2,3-b][1,4]oxazine-7-carboxamide]
EC50: > 30 µM

O=C(c1cnc2c(c1)N(S(=O)(=O)c1ccc(C(F)(F)F)cc1)CCO2)N1CCCCC1 [Example 49, piperidin-1-yl(1-(4-(trifluoromethyl)phenylsulf-onyl)-2,3-dihydro-1H-pyrido[2,3-b][1,4]oxazin-7-yl)methanone]
EC50: > 30 µM

O=C(c1cnc2c(c1)N(S(=O)(=O)c1ccc(C(F)(F)F)cc1)CCO2)N1CCOCC1 [Example 50, morpholino(1-(4-(trifluoromethyl)phenylsulf-onyl)-2,3-dihydro-1H-pyrido[2,3-b][1,4]oxazin-7-yl)methanone]
EC50: > 30 µM

COCCNC(=O)c1cnc2c(c1)N(S(=O)(=O)c1ccc(C(F)(F)F)cc1)CCO2 [Example 51, N-(2-methoxyethyl)-1-(4-(trifluoromethyl)phenysulf-onyl)-2,3-dihydro-1H-pyrido[2,3-b][1,4]oxazine-7-carboxamide]
EC50: > 30 µM

CC(C)(C)NC(=O)c1cnc2c(c1)N(S(=O)(=O)c1ccc(Cl)cc1Cl)CCO2 [Example 54, N-tert-butyl-1-(2,4-dichlorophenylsulfonyl)-2,3-dihydro-1H-pyrido[2,3-b][1,4]oxazine-7-carboxamide]
EC50: > 30 µM

Cc1cc(F)ccc1S(=O)(=O)N1CCOc2ncc(C(=O)NC(C)(C)C)cc21 [Example 56, N-tert-butyl-1-(4-fluoro-2-methylphenylsulfonyl)-2,3-dihydro-1H-pyrido[2,3-b][1,4]oxazine-7-carboxamide]
EC50: > 30 µM

CC(C)(C)NC(=O)c1cnc2c(c1)N(S(=O)(=O)c1ccc(F)cc1Cl)CCO2 [Example 57, N-tert-butyl-1-(2-chloro-4-fluorophenylsulfonyl)-2,3-dihydro-1H-pyrido[2,3-b][1,4]oxazine-7-carboxamide]
EC50: > 30 µM

CC(C)(C)NC(=O)c1cnc2c(c1)N(S(=O)(=O)Cc1ccccc1)CCO2 [Example 60, 1-(benzylsulfonyl)-N-tert-butyl-2,3-dihydro-1H-pyrido[2,3-b][1,4]oxazine-7-carboxamide]
EC50: > 30 µM

CC(C)(C)NC(=O)c1cnc2c(c1)N(S(=O)(=O)Cc1ccc(Cl)cc1)CCO2 [Example 61, N-tert-butyl-1-(4-chlorobenzylsulfonyl)-2,3-dihydro-1H-pyrido[2,3-b][1,4]oxazine-7-carboxamide]
inverse agonist mark, human CB1 receptor (asterisk at the compound number): 2, 3, 5, 7, 8, 10, 39, 58, 61*, 69, 93*, 101, 102, 109, 110, 111, 112,

CC(C)(C)NC(=O)c1cnc2c(c1)N(S(=O)(=O)Cc1ccc(F)cc1)CCO2 [Example 62, N-tert-butyl-1-(4-fluorobenzylsulfonyl)-2,3-dihydro-1H-pyrido[2,3-b][1,4]oxazine-7-carboxamide]
EC50: > 30 µM

CC(C)(CN1CCCCC1)NC(=O)c1cnc2c(c1)N(S(=O)(=O)c1ccc(C(F)(F)F)cc1)CCO2 [Example 77, N-(2-methyl-1-(piperidin-1-yl)propan-2-yl)-1-(4-(trifluoromethyl)phenylsulf-onyl)-2,3-dihydro-1H-pyrido[2,3-b][1,4]oxazine-7-carboxamide]
EC50: > 30 µM

CCCS(=O)(=O)N1CCOc2ncc(C(=O)NC(C)(C)C)cc21 [Example 79, N-tert-butyl-1-(propylsulfonyl)-2,3-dihydro-1H-pyrido[2,3-b][1,4]oxazine-7-carboxamide]
EC50: > 30 µM

CC(C)(C)NC(=O)c1cnc2c(c1)N(S(=O)(=O)c1ccc(C(C)(C)C)cc1)CCO2 [Example 82, N-tert-butyl-1-(4-tert-butylphenylsulfonyl)-2,3-dihydro-1H-pyrido[2,3-b][1,4]oxazine-7-carboxamide]
EC50: > 30 µM

CC(C)(C)NC(=O)c1cnc2c(c1)N(S(=O)(=O)c1cccc(OC(F)(F)F)c1)CCO2 [Example 85, N-tert-butyl-1-(3-(trifluoromethoxy)phenyl-sulfonyl)-2,3-dihydro-1H-pyrido[2,3-b][1,4]oxazine-7-carboxamide]
EC50: > 30 µM

Cc1cccc(S(=O)(=O)N2CCOc3ncc(C(=O)NC(C)(C)C)cc32)c1 [Example 86, N-tert-butyl-1-(m-tolylsulfonyl)-2,3-dihydro-1H-pyrido[2,3-b][1,4]oxazine-7-carboxamide]
EC50: > 30 µM
